Test results taken from ChEMBL document CHEMBL5131397, “Discovery and Optimization of Pyrazole Amides as Inhibitors of ELOVL1” (J Med Chem, 2021).
Activity calls are given as the source filed them. The rule behind the calls is not given here.

What was measured:
[1] = Increase in C20:0/C16:0 LPC level in ABCD1 knock out mouse CNS at 1 mg/kg, po qd measured after 3 months of dosing by LC-MS/MS analysis; format: functional; settings: 2190 h
[2] = system: Mus musculus; test: Reduction in C26:0/C16:0 LPC level in ABCD1 knock out mouse CNS at 1 to 10 mg/kg, po qd measured after 2 months of dosing by LC-MS/MS analysis; format: functional, organism-based; settings: dose 1-10 mg/kg
[3] = Cmax in Sprague-Dawley rat at 3 mg/kg, po upto 24 hrs by LC/MS/MS analysis; format: ADME, organism-based; parameters: dose 3 mg/kg, time < 24 hrs, route po; settings: in vivo
[4] = Toxicity in ABCD1 knock out mouse assessed as decrease in body weight at 8 to 32 mg/kg, po qd treated for 6 months; format: organism-based; settings: in vivo, 4380 h, dose 8-32 mg/kg
[5] = system: Fibroblast; test: Reduction in C26:0 lysophosphatidyl choline synthesis in primary human CALD patient-derived fibroblast incubated for 48 hrs; format: functional, cell-based; settings: DDE = dose-dependent effect
[6] = Toxicity in Sprague-Dawley rat assessed as ulceration at 5 to 50 mg/kg/day, po administered for 2 to 8 weeks; format: organism-based; settings: in vivo, dose lower 5 mg/kg/day, time lower 2 weeks, dose upper 50 mg/kg/day, time upper 8 weeks
[7] = Volume of distribution at steady state in mouse at 1 mg/kg, iv upto 48 hrs by LC/MS/MS analysis; format: ADME, organism-based; settings: in vivo, read-out: Vdss
[8] = target: T1, Very long chain fatty acid elongase 1 (Homo sapiens, UniProt Q9BW60); test: Inhibition of ELOVL1 in Het […] 2 patient-derived human lymphocyte assessed as reduction of C26:0 VLCFA synthesis incubated for 48 hrs by cellular assay; format: cell-based
T1 sequence (Q9BW60 whole entry): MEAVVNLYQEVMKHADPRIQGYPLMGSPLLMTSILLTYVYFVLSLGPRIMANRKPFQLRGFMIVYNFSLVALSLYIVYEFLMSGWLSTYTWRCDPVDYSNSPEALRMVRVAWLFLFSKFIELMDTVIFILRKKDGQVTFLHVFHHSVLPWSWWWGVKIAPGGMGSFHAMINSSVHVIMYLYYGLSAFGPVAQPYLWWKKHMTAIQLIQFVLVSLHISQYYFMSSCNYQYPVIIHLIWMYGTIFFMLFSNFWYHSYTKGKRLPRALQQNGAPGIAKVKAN

[9] = system: HEK-293T; test: Reduction in C26:0 LPC level in isogenic wild-type human HEK-293T cells with ELOVL-1 expression in presence of 13C-labeled acetate measured after 48 hrs by mass spectroscopy; format: functional, cell-based
[10] = Toxicity in Sprague-Dawley rat assessed as corneal opacities at 5 mg/kg/day, po administered for 8 weeks by macroscopic observation analysis; format: organism-based; settings: in vivo, 1344 h
[11] = target: T1, Very long chain fatty acid elongase 1; test: Inhibition of ELOVL1 in AMN 2 patient-derived fibroblast assessed as reduction of C26:0 VLCFA synthesis incubated for 48 hrs by cellular assay; format: cell-based
[12] = Reduction in C26:0/C16:0 LPC level in ABCD1 knock out mouse CNS at 10 mg/kg, po qd measured after 3 months of dosing by LC-MS/MS analysis; format: functional; parameters: scale not given: the % may be the effect or the level left; settings: 2190 h
[13] = Toxicity in Sprague-Dawley rat assessed as ocular stromal fibrosis at 5 mg/kg/day, po administered for 8 weeks by microscopic observation analysis; format: organism-based; settings: in vivo, 1344 h
[14] = system: Mus musculus; test: Reversal of loss of thermal pain sensitivity in ABCD1 knock out mouse assessed as increase in latency at 8 to 32 mg/kg, po qd treated for 6 months by Hargreaves test; format: functional, organism-based; settings: dose 8-32 mg/kg
[15] = Reduction in C26:0 LPC level in ELOVL-1 KO clonal human HEK-293T cells in presence of 13C-labeled acetate measured after 48 hrs by mass spectroscopy relative to control; format: functional; parameters: scale not given: the % may be the effect or the level left
[16] = Clearance in Beagle dog at 0.5 mg/kg, iv upto 48 hrs by LC/MS/MS analysis; format: ADME, organism-based, Canis lupus familiaris; settings: in vivo
[17] = AUC (infinity) in Beagle dog at 3 mg/kg, po upto 24 hrs by LC/MS/MS analysis; format: ADME, organism-based, Canis lupus familiaris; parameters: time < 24 hrs, dose 3 mg/kg, route po; settings: in vivo
[18] = Volume of distribution at steady state in Sprague-Dawley rat at 1 mg/kg, iv upto 48 hrs by LC/MS/MS analysis; format: ADME, organism-based; settings: in vivo, read-out: Vdss
[19] = Reduction in C26:0 LPC level in ABCD1 knock out mouse blood assessed as fold increase at 0.5 to 32 mg/kg, po qd for 105 days by LC-MS/MS analysis; format: functional; settings: dose 0.5-32 mg/kg, time 105 day
[20] = system: Fibroblast; test: Reduction in C26:0 lysophosphatidyl choline synthesis in primary human AMN patient-derived fibroblast incubated for 48 hrs; format: functional, cell-based; settings: DDE = dose-dependent effect
[21] = Cytotoxicity against human THLE-2 cells assessed as decrease in intracellular ATP levels incubated for 72 hrs by Cell Titer-Glo luminescence assay; format: toxicity, cell-based; settings: read-out: TC50
[22] = system: Mus musculus; test: Reduction of C26:0 LPC level in ABCD1 KO mouse blood at 5 to 20 mg/kg, po qd for 8 months continuous dosing by LC-MS/MS analysis; format: functional, organism-based; settings: dose 5-20 mg/kg
[23] = AUC (infinity) in Cynomolgus monkey at 3 mg/kg, po upto 24 hrs by LC/MS/MS analysis; format: ADME, organism-based, Macaca fascicularis; parameters: dose 3 mg/kg, time < 24 hrs, route po; settings: in vivo
[24] = system: Mus musculus; test: Reduction in C26:0/C16:0 LPC level in normal diet fed ABCD1 knock out mouse blood administered orally qd measured after 14 day by LC-MS/MS analysis; format: functional, tissue-based; settings: route po, DDE = dose-dependent effect
[25] = target: T2, Very long chain fatty acid elongase 4 (Homo sapiens, UniProt Q9GZR5); test: Inhibition of ELOVL4 (unknown origin) in presence of C26-acyl-CoA by radiometric enzyme assay
T2 sequence (Q9GZR5 whole entry): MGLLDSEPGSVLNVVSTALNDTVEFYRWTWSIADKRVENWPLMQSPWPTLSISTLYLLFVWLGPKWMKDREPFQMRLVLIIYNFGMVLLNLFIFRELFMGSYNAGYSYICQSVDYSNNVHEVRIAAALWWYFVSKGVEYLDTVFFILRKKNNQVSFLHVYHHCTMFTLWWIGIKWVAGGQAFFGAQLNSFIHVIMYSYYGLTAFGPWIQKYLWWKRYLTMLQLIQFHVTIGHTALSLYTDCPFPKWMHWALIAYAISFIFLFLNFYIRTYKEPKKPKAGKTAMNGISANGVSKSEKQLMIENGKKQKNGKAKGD

[26] = Toxicity in juvenile Sprague-Dawley rat assessed as clonic convulsions 5 to 75 mg/kg/day, po treatment started from postnatal day 75 to 114 days measured after cessation of dosing; format: organism-based; settings: in vivo, dose lower 5 mg/kg/day, time lower 75 day, dose upper 75 mg/kg/day, time upper 114 day
[27] = Plasma protein binding in human at 5 uM; format: ADME, cell-free; settings: read-out: PPB (converted)

Q: With O=C(Nc1ccn(-c2ccnc(F)c2)n1)C1(c2ccccc2F)CC1 as the compound, how does the Activity [1] read?
A: 18%

Q: And the Activity [2]?
A: Active

Q: And the Cmax [3]?
A: 174 ng/mL

Q: What about the Activity [4] of the same compound?
A: Non-Toxic

Q: What about the Activity [5] of the same compound?
A: Dde

Q: And the Activity [6]?
A: Toxic

Q: And the Vd [7]?
A: 2.6 L/kg

Q: What about the IC50 [8] of the same compound?
A: 9 nM

Q: And the Activity [9]?
A: Active

Q: And the Activity [10]?
A: Toxic

Q: What about the IC50 [11] of the same compound?
A: 17 nM

Q: And the Activity [12]?
A: 34%

Q: What about the Activity [13] of the same compound?
A: Toxic

Q: What about the Activity [14] of the same compound?
A: Active

Q: What about the Activity [15] of the same compound?
A: 90%

Q: And the clearance [16]?
A: 30.4 mL/min/kg

Q: And the AUC(0-inf) [17]?
A: 1250 ng·h/mL

Q: And the Vd [18]?
A: 4 L/kg

Q: And the “fold change (FC)” value [19]?
A: 10

Q: What about the Activity [20] of the same compound?
A: Dde

Q: What about the CC50 at 72 h [21] of the same compound?
A: > 100 µM

Q: What about the Activity [22] of the same compound?
A: Active

Q: And the AUC(0-inf) [23]?
A: 7700 ng·h/mL

Q: And the Activity [24]?
A: Dde

Q: And the IC50 [25]?
A: > 200 µM

Q: And the Activity [26]?
A: Toxic

Q: And the fraction unbound at 5 µM [27]?
A: 0.062
